# In patent publication US20100311714A1, “1H-IMIDAZO[4,5-c]QUINOLINONE COMPOUNDS” (priority 2009, published 2010):
# Molecular target: T1, PI3K beta (Homo sapiens, UniProt P42338)
# T1 construct: for the full-length p110-b subunit are generated and fused by overlapping PCR; His tag (C); made in house; host or cells: baculovirus BV949; Tn5 (Trichoplusia ni) or TiniPro insect cells
# Experiment: PI3K beta kinase assay (Kinase-Glo luminescence)
# Format: biochemical
# Settings: read-out: EPK_PI3Kbeta/IC50
# Summary of the method: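 PI3Kβ construct BV949 (p85 iSH2–p110β full-length, C-His), 25 nM, reacted with 1 μM ATP and 10 μg/mL phosphatidylinositol in Tris pH 7.5, MgCl2, NaCl, CHAPS, DTT buffer, 60 min at room temperature. Remaining ATP by Kinase-Glo luminescence; IC50 from 4-parameter logistic fit of 8 concentrations.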
# T1 sequence (P42338 with tags, fused parts or gaps limits assumed): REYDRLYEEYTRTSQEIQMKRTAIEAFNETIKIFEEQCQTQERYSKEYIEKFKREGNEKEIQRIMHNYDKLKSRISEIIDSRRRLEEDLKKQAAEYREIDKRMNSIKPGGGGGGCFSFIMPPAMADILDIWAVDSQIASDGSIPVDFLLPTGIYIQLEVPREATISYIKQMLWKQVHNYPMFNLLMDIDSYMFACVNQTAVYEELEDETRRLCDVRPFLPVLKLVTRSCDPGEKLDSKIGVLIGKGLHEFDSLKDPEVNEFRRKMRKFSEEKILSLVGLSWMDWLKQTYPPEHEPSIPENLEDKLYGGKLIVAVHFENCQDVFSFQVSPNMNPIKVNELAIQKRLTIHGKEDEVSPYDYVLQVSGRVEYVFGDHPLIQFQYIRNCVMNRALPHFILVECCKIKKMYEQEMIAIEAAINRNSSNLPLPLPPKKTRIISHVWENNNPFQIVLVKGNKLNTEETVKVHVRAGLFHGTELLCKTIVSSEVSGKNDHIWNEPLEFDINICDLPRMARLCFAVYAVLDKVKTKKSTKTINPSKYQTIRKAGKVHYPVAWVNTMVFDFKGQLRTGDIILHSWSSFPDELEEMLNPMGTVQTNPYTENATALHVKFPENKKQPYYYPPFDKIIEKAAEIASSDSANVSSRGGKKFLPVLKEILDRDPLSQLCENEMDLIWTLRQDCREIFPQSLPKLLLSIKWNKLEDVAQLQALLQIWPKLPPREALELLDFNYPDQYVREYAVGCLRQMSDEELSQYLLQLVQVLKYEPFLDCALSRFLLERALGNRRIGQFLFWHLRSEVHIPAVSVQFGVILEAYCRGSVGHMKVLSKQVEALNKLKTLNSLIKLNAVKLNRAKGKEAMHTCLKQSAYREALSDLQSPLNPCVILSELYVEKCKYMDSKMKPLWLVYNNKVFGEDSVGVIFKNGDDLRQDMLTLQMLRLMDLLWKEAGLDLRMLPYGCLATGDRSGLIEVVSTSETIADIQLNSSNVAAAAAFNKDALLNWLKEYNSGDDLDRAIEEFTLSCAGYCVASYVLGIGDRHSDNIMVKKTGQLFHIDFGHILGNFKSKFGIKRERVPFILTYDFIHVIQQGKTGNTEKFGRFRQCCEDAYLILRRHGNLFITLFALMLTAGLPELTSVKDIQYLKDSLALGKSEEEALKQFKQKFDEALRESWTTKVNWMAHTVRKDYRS
row,IC50 [nM],SMILES
1,891,"CCOc1ccc(-c2ccc3ncc4c(c3c2)n(-c2ccc(NC(=O)COC)nc2C)c(=O)n4C)cn1 [Example 20.2, N-{5-[8-(6-Ethoxy-pyridin-3-yl)-3-methyl-2-oxo-2,3-dihydro-imidazo[4,5-c]quinolin-1-yl]-6-methyl-pyridin-2-yl}-2-methoxy-acetamide]"
2,300,"Cc1nc(N(C)C)ccc1-n1c(=O)n(C)c2cnc3ccc(-c4cncc(N)c4)cc3c21 [Example 19.5, 8-(5-Amino-pyridin-3-yl)-1-(6-dimethylamino-2-methyl-pyridin-3-yl)-3-methyl-1,3-dihydro-imidazo[4,5-c]quinolin-2-one]"
3,358,"CCOc1ccc(-c2ccc3ncc4c(c3c2)n(-c2ccc(C)nc2C)c(=O)n4C)cn1 [Example 14.2, 1-(2,6-Dimethyl-pyridin-3-yl)-8-(6-ethoxy-pyridin-3-yl)-3-methyl-1,3-dihydro-imidazo[4,5-c]quinolin-2-one]"
4,541,"CNc1ncc(-c2ccc3ncc4c(c3c2)n(-c2ccc(N(C)CCOC)nc2C)c(=O)n4C)cn1 [Example 15.2, 1-{6-[(2-Methoxy-ethyl)-methyl-amino]-2-methyl-pyridin-3-yl}-3-methyl-8-(2-methylamino-pyrimidin-5-yl)-1,3-dihydro-imidazo[4,5-c]quinolin-2-one]"
5,1100,"Cc1ccc(-n2c(=O)n(C)c3cnc4ccc(-c5cnc6c(ccn6C)c5)cc4c32)c(C)n1 [Example 14.7, 1-(2,6-Dimethyl-pyridin-3-yl)-3-methyl-8-(1-methyl-1H-pyrrolo[2,3-b]pyridin-5-yl)-1,3-dihydro-imidazo[4,5-c]quinolin-2-one]"
6,2760,"CNc1ncc(-c2ccc3ncc4c(c3c2)n(-c2ccc(NC(=O)COC)nc2C)c(=O)n4C)cn1 [Example 20.3, 2-Methoxy-N-{6-methyl-5-[3-methyl-8-(2-methylamino-pyrimidin-5-yl)-2-oxo-2,3-dihydro-imidazo[4,5-c]quinolin-1-yl]-pyridin-2-yl}-acetamide]"
7,49,"CCNc1cc(-c2ccc3ncc4c(c3c2)n(-c2ccc(N(C)CC)nc2C)c(=O)n4C)cnc1C [Example 12.2, 8-(5-Ethylamino-6-methyl-pyridin-3-yl)-1-[6-(ethyl-methyl-amino)-2-methyl-pyridin-3-yl]-3-methyl-1,3-dihydro-imidazo[4,5-c]quinolin-2-one]"
8,122,"COCCOc1ccc(-n2c(=O)n(C)c3cnc4ccc(-c5cnc(COC)c(OC)c5)cc4c32)c(C)n1 [Example 22.3, 1-[6-(2-Methoxy-ethoxy)-2-methyl-pyridin-3-yl]-8-(5-methoxy-6-methoxymethyl-pyridin-3-yl)-3-methyl-1,3-dihydro-imidazo[4,5-c]quinolin-2-one]"
9,150,"CCNc1cc(-c2ccc3ncc4c(c3c2)n(-c2cnc(F)cc2C)c(=O)n4C)cnc1C [Example 16.2, 8-(5-Ethylamino-6-methyl-pyridin-3-yl)-1-(6-fluoro-4-methyl-pyridin-3-yl)-3-methyl-1,3-dihydro-imidazo[4,5-c]quinolin-2-one]"
10,261,"Cc1cc(F)ncc1-n1c(=O)n(C)c2cnc3ccc(-c4cnc5c(ccn5C)c4)cc3c21 [Example 16.5, 1-(6-Fluoro-4-methyl-pyridin-3-yl)-3-methyl-8-(1-methyl-1H-pyrrolo[2,3-b]pyridin-5-yl)-1,3-dihydro-imidazo[4,5-c]quinolin-2-one]"
11,42,"CNc1ncc(-c2ccc3ncc4c(c3c2)n(-c2ccc(F)nc2C)c(=O)n4C)cc1C(F)(F)F [Example 7.13, 1-(6-Fluoro-2-methyl-pyridin-3-yl)-3-methyl-8-(6-methylamino-5-trifluoromethyl-pyridin-3-yl)-1,3-dihydro-imidazo[4,5-c]quinolin-2-one]"
12,14,"CNC(=O)c1cc(-c2ccc3ncc4c(c3c2)n(-c2ccc(F)nc2C)c(=O)n4C)cnc1N [Example 7.14, 2-Amino-5-[1-(6-fluoro-2-methyl-pyridin-3-yl)-3-methyl-2-oxo-2,3-dihydro-1H-imidazo[4,5-c]quinolin-8-yl]-N-methyl-nicotinamide]"
13,15,"COCCN(C)c1ccc(-n2c(=O)n(C)c3cnc4ccc(-c5cnc(CO)c(OC)c5)cc4c32)c(C)n1 [Example 15.9, 8-(6-Hydroxymethyl-5-methoxy-pyridin-3-yl)-1-{6-[(2-methoxy-ethyl)-methyl-amino]-2-methyl-pyridin-3-yl}-3-methyl-1,3-dihydro-imidazo[4,5-c]quinolin-2-one]"
14,50,"CCNc1cc(-c2ccc3ncc4c(c3c2)n(-c2ccc(C)nc2C)c(=O)n4C)cnc1C [Example 14.6, 1-(2,6-Dimethyl-pyridin-3-yl)-8-(5-ethylamino-6-methyl-pyridin-3-yl)-3-methyl-1,3-dihydro-imidazo[4,5-c]quinolin-2-one]"
15,746,"COCCOc1ccc(-n2c(=O)n(C)c3cnc4ccc(-c5cncc(N6CCC6)c5)cc4c32)c(C)n1 [Example 22.2, 8-(5-Azetidin-1-yl-pyridin-3-yl)-1-[6-(2-methoxy-ethoxy)-2-methyl-pyridin-3-yl]-3-methyl-1,3-dihydro-imidazo[4,5-c]quinolin-2-one]"
16,1520,"CNc1ccc(-c2ccc3ncc4c(c3c2)n(-c2ccc(N3CCCC3)nc2C)c(=O)n4C)cn1 [Example 25.1, 3-Methyl-8-(6-methylamino-pyridin-3-yl)-1-(2-methyl-6-pyrrolidin-1-yl-pyridin-3-yl)-1,3-dihydro-imidazo[4,5-c]quinolin-2-one]"
17,282,"CNc1ncc(-c2ccc3ncc4c(c3c2)n(-c2ccc(C)nc2C)c(=O)n4C)cn1 [Example 14.4, 1-(2,6-Dimethyl-pyridin-3-yl)-3-methyl-8-(2-methylamino-pyrimidin-5-yl)-1,3-dihydro-imidazo[4,5-c]quinolin-2-one]"
18,19,"Cc1nc(N2CC(F)(F)C2)ccc1-n1c(=O)n(C)c2cnc3ccc(-c4cncc(C(C)(C)O)c4)cc3c21 [Example 24.2, 1-[6-(3,3-Difluoro-azetidin-1-yl)-2-methyl-pyridin-3-yl]-8-[5-(1-hydroxy-1-methyl-ethyl)-pyridin-3-yl]-3-methyl-1,3-dihydro-imidazo[4,5-c]quinolin-2-one]"
19,396,"Cc1ccc(-n2c(=O)n(C)c3cnc4ccc(-c5cnc(N(C)C)nc5)cc4c32)c(C)n1 [Example 14.3, 8-(2-Dimethylamino-pyrimidin-5-yl)-1-(2,6-dimethyl-pyridin-3-yl)-3-methyl-1,3-dihydro-imidazo[4,5-c]quinolin-2-one]"
20,99,"CNc1ncc(-c2ccc3ncc4c(c3c2)n(-c2ccc(N(C)C)nc2C)c(=O)n4C)cn1 [Example 19.1, 1-(6-Dimethylamino-2-methyl-pyridin-3-yl)-3-methyl-8-(2-methylamino-pyrimidin-5-yl)-1,3-dihydro-imidazo[4,5-c]quinolin-2-one]"
21,194,"CCOCc1cc(-c2ccc3ncc4c(c3c2)n(-c2ccc(F)nc2C)c(=O)n4C)cnc1N [Example 7.15, 8-(6-Amino-5-ethoxymethyl-pyridin-3-yl)-1-(6-fluoro-2-methyl-pyridin-3-yl)-3-methyl-1,3-dihydro-imidazo[4,5-c]quinolin-2-one]"
22,41,"CNc1cc(-c2ccc3ncc4c(c3c2)n(-c2ccc(F)nc2C)c(=O)n4C)cnc1CO [Example 7.11, 1-(6-Fluoro-2-methyl-pyridin-3-yl)-8-(6-hydroxymethyl-5-methylamino-pyridin-3-yl)-3-methyl-1,3-dihydro-imidazo[4,5-c]quinolin-2-one]"
23,2590,"COc1ccc(-n2c(=O)n(C)c3cnc4ccc(-c5cnc(CO)c(OC)c5)cc4c32)c(C)n1 [Example 11.8, 8-(6-Hydroxymethyl-5-methoxy-pyridin-3-yl)-1-(6-methoxy-2-methyl-pyridin-3-yl)-3-methyl-1,3-dihydro-imidazo[4,5-c]quinolin-2-one]"
24,658,"CNc1ncc(-c2ccc3ncc4c(c3c2)n(-c2ccc(OCCOC)nc2C)c(=O)n4C)cn1 [Example 13.5, 1-[6-(2-Methoxy-ethoxy)-2-methyl-pyridin-3-yl]-3-methyl-8-(2-methylamino-pyrimidin-5-yl)-1,3-dihydro-imidazo[4,5-c]quinolin-2-one]"
25,279,"COCCN(C)c1ccc(-n2c(=O)n(C)c3cnc4ccc(-c5cnc6c(ccn6C)c5)cc4c32)c(C)n1 [Example 15.7, 1-{6-[(2-Methoxy-ethyl)-methyl-amino]-2-methyl-pyridin-3-yl}-3-methyl-8-(1-methyl-1H-pyrrolo[2,3-b]pyridin-5-yl)-1,3-dihydro-imidazo[4,5-c]quinolin-2-one]"

# Same assay, conditions: read-out: PI3Kbeta/IC50
row,IC50 [nM],SMILES
1,165,"CNc1ncc(-c2ccc3ncc4c(c3c2)n(-c2cccnc2C)c(=O)n4C)cn1 [Example 2.2, 3-Methyl-8-(2-methylamino-pyrimidin-5-yl)-1-(2-methyl-pyridin-3-yl)-1,3-dihydro-imidazo[4,5-c]quinolin-2-one]"
2,23,"COc1ccc(-n2c(=O)n(C)c3cnc4ccc(-c5cnc(N)c(C(F)(F)F)c5)cc4c32)c(OC)n1 [Example 8.1, 8-(6-Amino-5-trifluoromethyl-pyridin-3-yl)-1-(2,6-dimethoxy-pyridin-3-yl)-3-methyl-1,3-dihydro-imidazo[4,5-c]quinolin-2-one]"
3,295,"COc1ccc(-c2ccc3ncc4c(c3c2)n(-c2cccnc2)c(=O)n4C)cc1OC [Example 5.2, 8-(3,4-Dimethoxy-phenyl)-3-methyl-1-pyridin-3-yl-1,3-dihydro-imidazo[4,5-c]quinolin-2-one]"
4,505,"CCOc1ccc(-c2ccc3ncc4c(c3c2)n(-c2cccnc2OC)c(=O)n4C)cn1 [Example 1.5, 8-(6-Ethoxy-pyridin-3-yl)-1-(2-methoxy-pyridin-3-yl)-3-methyl-1,3-dihydro-imidazo[4,5-c]quinolin-2-one]"
5,263,"COc1ccc(-c2ccc3ncc4c(c3c2)n(-c2cccnc2)c(=O)n4C)cn1 [Example 5.4, 8-(6-Methoxy-pyridin-3-yl)-3-methyl-1-pyridin-3-yl-1,3-dihydro-imidazo[4,5-c]quinolin-2-one]"
